pEC50: −log10 of the molar value.

The first series deals with HBV. Kind of series: HepAD38 antiviral assay: reduction of viral product accumulation (virion DNA by qPCR, HBsAg or HBeAg by ELISA). The series is classed as cell-based, hepatitis B virus. Particulars: HepAD38 cells; harvest five days after compound addition; 50% reduction of viral product accumulation relative to no drug controls. Here is the method:
Methods: HepAD38 cells are maintained as previously reported (Ladner et al, Antimicrob. Agents Chemother. 1997, […], 1715). Briefly, cells are passaged upon attaining confluency in DMEM/F12 media in the presence of 10% FBS, Penn/Strep, 250 μg/mL G418, and 1 μg/ml tetracycline. Novel compounds are screened by first washing cells three times with PBS to remove tetracycline, and plating in 96 well plates at 35,000 cells/well. Compounds dissolved in DMSO are then diluted 1:200 into wells containing cells. Five days after compound addition, material is harvested for analysis. For an extended 8 day analysis, cells are plated and treated as described above, but media and compound are refreshed on d2 and d5 post initial treatment.
On harvest day, virion DNA is obtained by lysing with Sidestep Lysis and Stabilization Buffer and then quantified via quantitative real time PCR. Commercially available ELISA kits are used to quantitate the viral proteins HBsAg (Alpco) or HbeAg (US Biological) by following the manufacturer's recommended protocol after diluting samples to match the linear range of their respective assays.
For the compound `O=C(O)CCN1C(=O)OC[C@@]12CC1=C(c3ccn(C(F)F)n3)[C@H](c3ccc(F)cc3Cl)N=C(c3nccs3)N1C2` [Example 22], the pEC50 is under 6.40.
For the compound `O=C(O)CCN1C(=O)OC[C@@]12CC1=C(c3ccn(C(F)F)n3)[C@H](c3ccc(F)cc3Cl)N=C(c3nccs3)N1C2` [Example 30], the pEC50 is over 7.00.

Staying with this series, now noted: Hepatitis B virus, HePAD38, 120 h, HepAD38 cells; harvest five days after compound addition; 50% reduction of viral product accumulation relative to no drug controls.
`C=CCN1C(=O)OC[C@@]12CC1=C(c3ccn(C(F)F)n3)[C@H](c3ccc(F)cc3Cl)N=C(c3nccs3)N1C2` [Example 25] showed a pEC50 of 6.40 to 7.00.
Same read-out and setting: the same measure for `CCOC(=O)C1=C2C[C@@]3(COC(=O)N3)CN2C(c2nccs2)=N[C@H]1c1ccc(F)cc1Cl` (relative stereo) [Example 11]: over 7.00.
Consider `C=CC1OC(=O)N[C@]12CC1=C(c3ccn(C(F)F)n3)[C@H](c3ccc(F)cc3Cl)N=C(c3nccs3)N1C2` (stereo partly shown) [Example 37], for which the pEC50 is 6.40 to 7.00.
Still for that read-out and setting: for `O=C1N[C@@]2(CO1)CC1=C(c3cnn(C(F)F)c3)[C@H](c3ccc(F)cc3Cl)N=C(c3nccs3)N1C2` [Example 3] the value was over 7.00; for `CCN1C(=O)OC[C@@]12CC1=C(c3ccn(C(F)F)n3)[C@H](c3ccc(F)cc3Cl)N=C(c3nccs3)N1C2` [Example 20], 6.40 to 7.00; for `CN1C(=O)OC[C@]12CC1=C(c3ccn(C(F)F)n3)[C@H](c3ccc(F)cc3Cl)N=C(c3nccs3)N1C2` [Example 26], over 7.00.
`O=C(O)CCCN1C(=O)OC[C@]12CC1=C(c3ccn(C(F)F)n3)[C@H](c3ccc(F)cc3Cl)N=C(c3nccs3)N1C2` [Example 33] gave a pEC50 of 6.40 to 7.00.
On the same count and under the same terms, for `COC(=O)CCCN1C(=O)OC[C@]12CC1=C(c3ccn(C(F)F)n3)[C@H](c3ccc(F)cc3Cl)N=C(c3nccs3)N1C2` [Example 32] the value was over 7.00; for `CCOC(=O)C1=C2C[C@@]3(CNC(=O)N3)CN2C(c2nccs2)=N[C@H]1c1ccc(F)cc1Cl` (relative stereo) [Example 13], under 6.40.
Regarding `O=C1OC[C@]2(CC3=C(c4ccn(C(F)F)n4)[C@H](c4ccc(F)cc4Cl)N=C(c4nccs4)N3C2)N1C[C@H](O)CO` [Example 34], the pEC50 was under 6.40.
Same read-out and setting: the same measure for `O=C(O)CN1C(=O)OC[C@]12CC1=C(c3ccn(C(F)F)n3)[C@H](c3ccc(F)cc3Cl)N=C(c3nccs3)N1C2` [Example 28]: under 6.40; for `CC1OC(=O)N[C@@]12CC1=C(c3ccn(C(F)F)n3)[C@H](c3ccc(F)cc3Cl)N=C(c3nccs3)N1C2` (stereo partly shown) [Example 44]: over 7.00; for `O=C1NC[C@@]2(CC3=C(c4cnn(C(F)F)c4)[C@H](c4ccc(F)cc4Cl)N=C(c4nccs4)N3C2)N1` [Example 1]: over 7.00.
Turning to `O=C1NC[C@]2(CC3=C(c4cnn(C(F)F)c4)[C@H](c4ccc(F)cc4Cl)N=C(c4nccs4)N3C2)N1` [Example 2], the pEC50 was over 7.00.
Still for that read-out and setting: the same measure for `COC(=O)CN1C(=O)OC[C@@]12CC1=C(c3ccn(C(F)F)n3)[C@H](c3ccc(F)cc3Cl)N=C(c3nccs3)N1C2` [Example 23]: 6.40 to 7.00; for `C/C=C/CN1C(=O)OC[C@]12CC1=C(c3ccn(C(F)F)n3)[C@H](c3ccc(F)cc3Cl)N=C(c3nccs3)N1C2` [Example 36]: under 6.40.
`COC(=O)CN1C(=O)OC[C@]12CC1=C(c3ccn(C(F)F)n3)[C@H](c3ccc(F)cc3Cl)N=C(c3nccs3)N1C2` [Example 27] had a pEC50 of under 6.40.
The compound `C=CCN1C(=O)OC[C@]12CC1=C(c3ccn(C(F)F)n3)[C@H](c3ccc(F)cc3Cl)N=C(c3nccs3)N1C2` [Example 31] had a pEC50 of under 6.40.
With `COCOCC1OC(=O)N[C@]12CC1=C(c3ccn(C(F)F)n3)[C@H](c3ccc(F)cc3Cl)N=C(c3nccs3)N1C2` (stereo partly shown) [Example 39], the pEC50 is 6.40 to 7.00.
Regarding `O=C1OC[C@]2(CC3=C(c4ccn(C(F)F)n4)[C@H](c4ccc(F)cc4Cl)N=C(c4nccs4)N3C2)N1C[C@@H](O)CO` [Example 35], the pEC50 is 6.40 to 7.00.
`COC(=O)CCN1C(=O)OC[C@@]12CC1=C(c3ccn(C(F)F)n3)[C@H](c3ccc(F)cc3Cl)N=C(c3nccs3)N1C2` [Example 21] had a pEC50 of under 6.40.
The same measure, in the same setting: the same measure for `O=C(O)CN1C(=O)OC[C@@]12CC1=C(c3ccn(C(F)F)n3)[C@H](c3ccc(F)cc3Cl)N=C(c3nccs3)N1C2` [Example 24]: under 6.40.
On to `Fc1ccc([C@@H]2N=C(c3nccs3)N3CC4(CCCCC4)CC3=C2c2cnn(C(F)F)c2)c(Cl)c1` [Example 9], for which the pEC50 is over 7.00.
As for `O=C1N[C@]2(CO1)CC1=C(c3cnn(C(F)F)c3)[C@H](c3ccc(F)cc3Cl)N=C(c3nccs3)N1C2` [Example 4], the pEC50 was over 7.00.
In turn, `O=C1N[C@]2(CO1)CC1=C(c3ccn(C(F)F)n3)[C@H](c3ccc(F)cc3Cl)N=C(c3nccs3)N1C2` [Example 18] gave a pEC50 of over 7.00.
Compound `CN1C(=O)OC[C@@]12CC1=C(c3ccn(C(F)F)n3)[C@H](c3ccc(F)cc3Cl)N=C(c3nccs3)N1C2` [Example 19] showed a pEC50 of over 7.00.
The compound `O=C1NC[C@@]2(CC3=C(c4ccn(C(F)F)n4)[C@H](c4ccc(F)cc4Cl)N=C(c4nccs4)N3C2)O1` [Example 42] had a negative-log EC50 (pEC50) of 6.40 to 7.00.
The same measure, in the same setting: the same measure for `CC1OC(=O)N[C@]12CC1=C(c3ccn(C(F)F)n3)[C@H](c3ccc(F)cc3Cl)N=C(c3nccs3)N1C2` (stereo partly shown) [Example 38]: over 7.00; for `C=CCN1C[C@@]2(CC3=C(c4ccn(C(F)F)n4)[C@H](c4ccc(F)cc4Cl)N=C(c4nccs4)N3C2)OC1=O` [Example 43]: over 7.00.
Take `CCOC(=O)C1=C2C[C@]3(CNC(=O)N3)CN2C(c2nccs2)=N[C@H]1c1ccc(F)cc1Cl` (relative stereo) [Example 14]: the pEC50 is over 7.00.
In the case of `O=C1NC[C@]2(CC3=C(c4ccn(C(F)F)n4)[C@H](c4ccc(F)cc4Cl)N=C(c4nccs4)N3C2)O1` [Example 41], the pEC50 was 6.40 to 7.00.
Still for that read-out and setting: for `O=S1(=O)NC[C@]2(CC3=C(c4cnn(C(F)F)c4)[C@H](c4ccc(F)cc4Cl)N=C(c4nccs4)N3C2)N1` [Example 5] the value was over 7.00.
The same measure, in the same setting: for `O=C1N[C@]2(CC3=C(c4ccn(C(F)F)n4)[C@H](c4ccc(F)cc4Cl)N=C(c4nccs4)N3C2)C(CO)O1` (stereo partly shown) [Example 40] the value was over 7.00; for `CS(=O)(=O)OC1CCCC12CC1=C(c3cnn(C(F)F)c3)[C@H](c3ccc(F)cc3Cl)N=C(c3nccs3)N1C2` (stereo partly shown) [Example 6], 6.40 to 7.00; for `O=S1(=O)NC[C@@]2(CC3=C(c4cnn(C(F)F)c4)[C@H](c4ccc(F)cc4Cl)N=C(c4nccs4)N3C2)N1` [Example 10], over 7.00.
The compound `O=C1N[C@@]2(CO1)CC1=C(c3ccn(C(F)F)n3)[C@H](c3ccc(F)cc3Cl)N=C(c3nccs3)N1C2` [Example 17] had a pEC50 of over 7.00.
`CCOC(=O)C1=C2C[C@]3(CNS(=O)(=O)N3)CN2C(c2nccs2)=N[C@H]1c1ccc(F)cc1Cl` (relative stereo) [Example 16] showed a pEC50 of over 7.00.
In turn, `CCOC(=O)C1=C2C[C@]3(COC(=O)N3)CN2C(c2nccs2)=N[C@H]1c1ccc(F)cc1Cl` (relative stereo) [Example 12] showed a pEC50 of over 7.00.
Same read-out and setting: the same measure for `CCOC(=O)C1=C2C[C@@]3(CNS(=O)(=O)N3)CN2C(c2nccs2)=N[C@H]1c1ccc(F)cc1Cl` (relative stereo) [Example 15]: over 7.00.

System in the next series: not listed separately
Kind of series: Compound toxicity, total ATP levels (ATPLite). Type of series: cell-based. Particulars: human, HepG2 cells, three days after compound addition, 50% reduction of total ATP levels (ATPLite) relative to no drug controls. As for the experimental part: Compound toxicity is evaluated by seeding cells at 15,000 cells/well and treating with compound as described above.
`O=C1N[C@@]2(CO1)CC1=C(c3cnn(C(F)F)c3)[C@H](c3ccc(F)cc3Cl)N=C(c3nccs3)N1C2` [Example 3] came in with a CC50 at 3 days of over 25 µM.
Regarding `O=C1NC[C@]2(CC3=C(c4cnn(C(F)F)c4)[C@H](c4ccc(F)cc4Cl)N=C(c4nccs4)N3C2)N1` [Example 2], the half-maximal cytotoxic concentration (CC50) at 3 days was over 25 µM.
`O=C1N[C@]2(CO1)CC1=C(c3ccn(C(F)F)n3)[C@H](c3ccc(F)cc3Cl)N=C(c3nccs3)N1C2` [Example 18] gave a CC50 at 3 days of over 25 µM.
In turn, `CN1C(=O)OC[C@@]12CC1=C(c3ccn(C(F)F)n3)[C@H](c3ccc(F)cc3Cl)N=C(c3nccs3)N1C2` [Example 19] returned a CC50 at 3 days of over 25 µM.
`C=CCN1C[C@@]2(CC3=C(c4ccn(C(F)F)n4)[C@H](c4ccc(F)cc4Cl)N=C(c4nccs4)N3C2)OC1=O` [Example 43] came in with a CC50 at 3 days of over 25 µM.
In turn, `O=S1(=O)NC[C@@]2(CC3=C(c4cnn(C(F)F)c4)[C@H](c4ccc(F)cc4Cl)N=C(c4nccs4)N3C2)N1` [Example 10] came in with a CC50 at 3 days of over 25 µM.
The compound `O=C1N[C@@]2(CO1)CC1=C(c3ccn(C(F)F)n3)[C@H](c3ccc(F)cc3Cl)N=C(c3nccs3)N1C2` [Example 17] came in with a CC50 at 3 days of over 25 µM.
The compound `CCOC(=O)C1=C2C[C@@]3(CNS(=O)(=O)N3)CN2C(c2nccs2)=N[C@H]1c1ccc(F)cc1Cl` (relative stereo) [Example 15] displayed a CC50 at 3 days of over 25 µM.
